Counter-ions that a name gives are not always drawn. Like-named read-outs stand apart in the source and are kept apart here.
Tests used:
[1] = test system: PDE4; assay: EC50 of the PDE4 results table (method not given)
[2] = biological target: PDE4 enzyme; assay: Inhibition of Phosphodiesterase Enzymes (PDE4), [3H]cAMP hydrolysis assay; type: biochemical; conditions: PDE4 inhibition, 1 μM cAMP, 34° C., 20 minutes
Description: Inhibition of Phosphodiesterase Enzymes (PDE4)
In this assay, PDE4 enzyme converts [^3H] cAMP to the corresponding [^3H] 5′-AMP in proportion to the amount of PDE4 present. The [^3H] 5′-AMP then was quantitatively converted to free [^3H] adenosine and phosphate by the action of snake venom 5′-nucleotidase.
The assay was performed with modification of the method of Thompson and Appleman (Biochemistry; 1971; 10; 311-316) and Schwartz and Passoneau (Proc. Natl. Acad. Sci. U.S.A. 1974; 71; 3844-3848), both references incorporated herein by reference in their entirety, at 34° C. In a 200 ul total reaction mixture, the reaction mixture contained 12.5 mM of Tris, 5 mM MgCl2, 1 μM cAMP (cold) and ^3H cAMP (0.1 uCi), (Amersham). […] Drug samples were then added in the reaction mixture (25 μt/tube). The assay was initiated by addition of enzyme mix (75 μl) and the mixture was incubated for 20 minutes at 34° C. The reaction was stopped by boiling the tubes for 2 mins at 100° C. in a water bath. After cooling on ice for 5 minutes and addition of 50 ug/reaction of 5′-nucleotidase snake venom from Crotalus atrox incubation was carried out again for 20 min. at 34° C. The unreacted substrate was separated from (^3H) Adenosine by addition of Dowex AG 1-X8 (Biorad Lab), (400 ul) which was prequilibrated (1:1:1) in water and ethanol. Reaction mixture was then thoroughly mixed, placed on ice for 15 minutes, vortexed and centrifuged at 14,000 r.p.m. for 2 mins. After centrifugation, a sample of the supernatant was taken and added in 24 well optiplates containing Scintillant (1 ml) and mixed well. The samples in the plates were then determined for radioactivity in a Top Counter and the PDE4 activity was estimated. PDE4 enzyme was present in quantities that yield <30% total hydrolysis of substrate (linear assay conditions).
Results were expressed as percent inhibition (IC50) in nM concentrations. The IC50 values were determined from the concentration curves by nonlinear regression analysis.

Row | SMILES | EC50 [1] [nM] | IC50 [2] [nM] | further results
1 | COc1ccc(C(=O)Nc2c(Cl)cncc2Cl)c2c1oc1ccc(NS(C)(=O)=O)cc12 [Example 01, N-(3,5-dichloropyrid-4-yl)-4-methoxy-8-methanesulfonamido-dibenzo[b,d]furan-1-carboxamide] | 8.57 | 0.506 | 
2 | COc1ccc(C(=O)Nc2c(Cl)cncc2Cl)c2c1oc1ccc(NS(=O)(=O)N(C)C)cc12 [Example 02, N-(3,5-dichloropyrid-4-yl)-4-methoxy-8-(N,N-dimethylsulphonamido)-dibenzo[b,d]furan-1-carboxamide] | 2.07 | 1.03 | 
3 | CCS(=O)(=O)Nc1ccc2oc3c(OC)ccc(C(=O)Nc4c(Cl)cncc4Cl)c3c2c1 [Example 03, N-(3,5-dichloropyrid-4-yl)-4-methoxy-8-(ethanesulphonamido)-dibenzo[b,d]furan-1-carboxamide] | 7.39 | 0.762 | 
4 | CCOC(=O)C(=O)Nc1ccc2oc3c(OC)ccc(C(=O)Nc4c(Cl)cncc4Cl)c3c2c1 [Example 08, N-(3,5-dichloropyrid-4-yl)-4-methoxy-8-ethoxycarbonylcarboxamido-dibenzo[b,d]furan-1-carboxamide] | 110 | 4.68 | 
5 | COc1ccc(C(=O)Nc2c(Cl)cncc2Cl)c2c1oc1ccc(NC(=O)C(=O)O)cc12 [Example 09, N-(3,5-dichloropyrid-4-yl)-4-methoxy-8-hydroxycarbonylcarboxamido-dibenzo[b,d]furan-1-carboxamide] | 138 | 1.03 | 
6 | COc1ccc(C(=O)Nc2c(Cl)cncc2Cl)c2c1oc1ccc(NC(=O)C(=O)O)cc12 [Example 10, N-(3,5-dichloropyrid-4-yl)-4-methoxy-8-hydroxycarbonylcarboxamido-dibenzo[b,d]furan-1-carboxamide sodium salt] |  |  | EC50 ([1]; sodium salt): 38.2 nM; IC50 ([2]; sodium salt): 1.85 nM
7 | COc1ccc(C(=O)Nc2c(Cl)cncc2Cl)c2c1oc1ccc(NC(=O)c3ccco3)cc12 [Example 11, N-(3,5-dichloropyrid-4-yl)-4-methoxy-8-(fur-2-yl-carboxamido)-dibenzo[b,d]furan-1-carboxamide] | 4.34 | 0.887 | 
8 | COc1ccc(C(=O)Nc2c(Cl)cncc2Cl)c2c1oc1ccc(NC(=O)C3CC3)cc12 [Example 12, N-(3,5-dichloropyrid-4-yl)-4-methoxy-8-(cyclopropylcarbonylamino)-dibenzo[b,d]furan-1-carboxamide] | 16.2 | 0.557 | 
9 | COc1ccc(C(=O)Nc2c(Cl)cncc2Cl)c2c1oc1ccc(N(C(=O)C3CC3)C(=O)C3CC3)cc12 [Example 13, N-(3,5-dichloropyrid-4-yl)-4-methoxy-8-(N,N-dicyclopropylcarbonylamino)-dibenzo[b,d]furan-1-carboxamide] |  | 74 | 
10 | COc1ccc(C(=O)Nc2c(Cl)cncc2Cl)c2c1oc1ccc(NC(=O)Oc3ccccc3)cc12 [Example 17, N-(3,5-dichloropyrid-4-yl)-4-methoxy-8-phenoxycarboxamido-dibenzo[b,d]furan-1-carboxamide] | 104 | 9.09 | 
11 | COc1ccc(C(=O)Nc2c(Cl)cncc2Cl)c2c1oc1ccc(NC(=O)N3CCN(C)CC3)cc12 [Example 23, N-(3,5-dichloropyrid-4-yl)-4-methoxy-8-(N-methylpiperazin-4-ylcarboxamido)-dibenzo[b,d]furan-1-carboxamide hydrochloride] |  |  | EC50 ([1]; hydrochloride): 4.14 nM; IC50 ([2]; hydrochloride): 3.78 nM

Now from value to molecule, other results behind:

Row | EC50 [1] [nM] | IC50 [2] [nM] | SMILES | further results
12 |  | 63.6 | COc1ccc(C(=O)Nc2c(Cl)cncc2Cl)c2c1oc1ccc(NC(=O)OCC(C)C)cc12 [Example 16, N-(3,5-dichloropyrid-4-yl)-4-methoxy-8-isobutyloxycarboxamido-dibenzo[b,d]furan-1-carboxamide] | 
13 | 9.01 | 4.79 | COc1ccc(C(=O)Nc2c(Cl)cncc2Cl)c2c1oc1ccc(NC(=O)OCC(F)(F)F)cc12 [Example 19, N-(3,5-dichloropyrid-4-yl)-4-methoxy-8-trifluoromethylmethoxycarboxamido-dibenzo[b,d]furan-1-carboxamide] | 
14 | 23.8 | 1.19 | COc1ccc(C(=O)Nc2c(Cl)cncc2Cl)c2c1oc1ccc(NC(=O)NC3CCCC3)cc12 [Example 21, N-(3,5-dichloropyrid-4-yl)-4-methoxy-8-cyclopentylaminocarboxamido-dibenzo[b,d]furan-1-carboxamide] | 
15 | 9.34 | 1.28 | COc1ccc(C(=O)Nc2c(Cl)cncc2Cl)c2c1oc1ccc(NC(=O)N3CCN(C)CC3)cc12 [Example 22, N-(3,5-dichloropyrid-4-yl)-4-methoxy-8-(N-methylpiperazin-4-ylcarboxamido)-dibenzo[b,d]furan-1-carboxamide] | 
16 | 2.94 | 3.01 | COc1ccc(C(=O)Nc2c(Cl)cncc2Cl)c2c1oc1ccc(NC(=O)N3CCC(O)CC3)cc12 [Example 24, N-(3,5-dichloropyrid-4-yl)-4-methoxy-8-(4-hydroxypiperidin-1-ylcarboxamido)-dibenzo[b,d]furan-1-carboxamide] | 
17 | 8.9 | 5.07 | COc1ccc(C(=O)Nc2c(Cl)cncc2Cl)c2c1oc1ccc(NC(=O)N3CCOCC3)cc12 [Example 25, N-(3,5-dichloropyrid-4-yl)-4-methoxy-8-(morphol-4-ylcarboxamido)-dibenzo[b,d]furan-1-carboxamide] | 
18 |  | 15.6 | COc1ccc(C(=O)Nc2c(Cl)cncc2Cl)c2c1oc1ccc(NC(=O)NC(C)C)cc12 [Example 26, N-(3,5-dichloropyrid-4-yl)-4-methoxy-8-isopropylamino carboxamido-dibenzo[b,d]furan-1-carboxamide] | 
19 | 4.16 | 3.4 | CCCCCCNC(=O)Nc1ccc2oc3c(OC)ccc(C(=O)Nc4c(Cl)cncc4Cl)c3c2c1 [Example 27, N-(3,5-dichloropyrid-4-yl)-4-methoxy-8-n-hexylamino carboxamido-dibenzo[b,d]furan-1-carboxamide] | 
20 | 6.33 | 1.4 | CCNC(=O)Nc1ccc2oc3c(OC)ccc(C(=O)Nc4c(Cl)cncc4Cl)c3c2c1 [Example 28, N-(3,5-dichloropyrid-4-yl)-4-methoxy-8-ethylamino carboxamido-dibenzo[b,d]furan-1-carboxamide] | 
21 | 19.3 | 2.14 | CNC(=O)Nc1ccc2oc3c(OC)ccc(C(=O)Nc4c(Cl)cncc4Cl)c3c2c1 [Example 29, N-(3,5-dichloropyrid-4-yl)-4-methoxy-8-methylamino carboxamido-dibenzo[b,d]furan-1-carboxamide] | 
22 |  | 14.1 | CCS(=O)(=O)Nc1ccc2oc3c(OC(F)F)ccc(C(=O)Nc4c(Cl)cncc4Cl)c3c2c1 [Example 32, N-(3,5-dichloropyrid-4-yl)-4-difluoromethoxy-8-ethanesulfonamido-dibenzo[b,d]furan-1-carboxamide] | 
23 |  | 12.1 | CN(C)S(=O)(=O)Nc1ccc2oc3c(OC(F)F)ccc(C(=O)Nc4c(Cl)cncc4Cl)c3c2c1 [Example 33, N-(3,5-dichloropyrid-4-yl)-4-difluoromethoxy-8-N,N-dimethylaminosulfonamido-dibenzo[b,d]furan-1-carboxamide] | 
24 |  | 237 | COc1ccc(C(=O)Nc2c(Cl)cncc2Cl)c2c3cc(NC(C)=O)ccc3n(C)c12 [Example 54, N-(3,5-dichloropyrid-4-yl)-1-methoxy-9-methyl-6-acetamido-9H-4-carbazolecarboxamide] | 

— patent US7393846B2, “Heterocyclic compounds useful for the treatment of inflammatory and allergic disorders” (Glenmark Pharmaceuticals, S.A., priority 2003, dated 2008)
